Data from the NIST ThermoML archive (doi:10.1021/je050020m).

Test: xn = mol fraction of the nth substance listed
Conditions: Liquid, Vibrating tube method

CCCCCCCCCC [decane] + O=C=O
Conditions	mass density [kg/m3]
332.94 K, 23010 kPa, x2 = 0.9663	775.39
332.94 K, 23014 kPa, x2 = 0.0551	721.3
332.94 K, 24016 kPa, x2 = 0.9663	784.64
332.94 K, 24025 kPa, x2 = 0.2369	730.17
332.94 K, 24026 kPa, x2 = 0.4536	743.58
332.94 K, 24057 kPa, x2 = 0.0551	722.11
332.94 K, 25006 kPa, x2 = 0.9663	793.1
332.94 K, 25022 kPa, x2 = 0.4536	744.71
332.94 K, 25028 kPa, x2 = 0.2369	731.08
332.94 K, 25048 kPa, x2 = 0.0551	722.92
342.79 K, 13528 kPa, x2 = 0.9663	503.61
342.79 K, 14029 kPa, x2 = 0.9663	528.33
342.79 K, 15026 kPa, x2 = 0.9663	569.49
342.79 K, 16019 kPa, x2 = 0.9663	603.24
342.79 K, 17025 kPa, x2 = 0.9663	631.6
342.79 K, 18035 kPa, x2 = 0.9663	657.54
342.79 K, 19000 kPa, x2 = 0.9663	674.01
342.79 K, 20022 kPa, x2 = 0.9663	691.29
342.79 K, 21024 kPa, x2 = 0.9663	706.16
342.79 K, 22022 kPa, x2 = 0.9663	719.34
342.79 K, 23022 kPa, x2 = 0.9663	731.24
342.79 K, 24017 kPa, x2 = 0.9663	741.98
342.79 K, 25006 kPa, x2 = 0.9663	751.96
342.84 K, 13020 kPa, x2 = 0.8114	721.51
342.84 K, 14001 kPa, x2 = 0.8114	726.31
342.84 K, 15022 kPa, x2 = 0.8114	730.92
342.84 K, 16041 kPa, x2 = 0.8114	735.26
342.84 K, 17013 kPa, x2 = 0.8114	739.14
342.84 K, 18018 kPa, x2 = 0.8114	742.96
342.84 K, 19020 kPa, x2 = 0.8114	746.57
342.84 K, 20008 kPa, x2 = 0.8114	749.98
342.84 K, 21023 kPa, x2 = 0.8114	753.35
342.84 K, 22003 kPa, x2 = 0.8114	756.46
342.84 K, 23041 kPa, x2 = 0.8114	759.67
342.84 K, 24026 kPa, x2 = 0.8114	762.58
342.84 K, 25034 kPa, x2 = 0.8114	765.48
342.86 K, 2043 kPa, x2 = 0.0551	694.82
342.86 K, 3006 kPa, x2 = 0.0551	695.92
342.86 K, 4043 kPa, x2 = 0.0551	696.93
342.86 K, 5044 kPa, x2 = 0.0551	697.98
342.86 K, 6046 kPa, x2 = 0.0551	699.02
342.86 K, 6984 kPa, x2 = 0.0551	699.98
342.86 K, 8003 kPa, x2 = 0.0551	701
342.86 K, 8999 kPa, x2 = 0.0551	702.09
342.86 K, 10007 kPa, x2 = 0.0551	702.98
342.86 K, 11044 kPa, x2 = 0.0551	703.97
342.86 K, 11996 kPa, x2 = 0.0551	704.89
342.86 K, 13021 kPa, x2 = 0.0551	705.84
342.86 K, 13997 kPa, x2 = 0.0551	706.74
342.86 K, 15043 kPa, x2 = 0.0551	707.69
342.86 K, 16022 kPa, x2 = 0.0551	708.54
342.86 K, 17001 kPa, x2 = 0.0551	709.54
342.86 K, 17984 kPa, x2 = 0.0551	710.28
342.86 K, 19042 kPa, x2 = 0.0551	711.19
342.86 K, 20017 kPa, x2 = 0.0551	712.03
342.86 K, 21054 kPa, x2 = 0.0551	713.1
342.86 K, 22022 kPa, x2 = 0.0551	713.72
342.86 K, 23029 kPa, x2 = 0.0551	714.55
342.86 K, 24018 kPa, x2 = 0.0551	715.37
342.86 K, 25025 kPa, x2 = 0.0551	716.21
342.87 K, 5031 kPa, x2 = 0.2369	702.48
342.87 K, 6026 kPa, x2 = 0.2369	703.7
342.87 K, 7027 kPa, x2 = 0.4536	711.28
342.87 K, 7029 kPa, x2 = 0.2369	704.93
342.87 K, 8006 kPa, x2 = 0.2369	706.09
342.87 K, 8024 kPa, x2 = 0.4536	712.92
342.87 K, 9027 kPa, x2 = 0.4536	714.5
342.87 K, 9030 kPa, x2 = 0.2369	707.28
342.87 K, 10014 kPa, x2 = 0.4536	716.02
342.87 K, 10017 kPa, x2 = 0.2369	708.4
342.87 K, 11019 kPa, x2 = 0.2369	709.54
342.87 K, 11025 kPa, x2 = 0.4536	717.56
342.87 K, 12003 kPa, x2 = 0.2369	710.62
342.87 K, 12015 kPa, x2 = 0.4536	719.02
342.87 K, 13006 kPa, x2 = 0.4536	720.46
342.87 K, 13017 kPa, x2 = 0.2369	711.73
342.87 K, 14013 kPa, x2 = 0.2369	712.79
342.87 K, 14013 kPa, x2 = 0.4536	721.87
342.87 K, 15001 kPa, x2 = 0.4536	723.23
342.87 K, 15021 kPa, x2 = 0.2369	713.84
342.87 K, 16004 kPa, x2 = 0.2369	714.86
342.87 K, 16029 kPa, x2 = 0.4536	724.63
342.87 K, 17018 kPa, x2 = 0.2369	715.9
342.87 K, 17019 kPa, x2 = 0.4536	725.94
342.87 K, 18016 kPa, x2 = 0.2369	716.89
342.87 K, 18026 kPa, x2 = 0.4536	727.26
342.87 K, 19005 kPa, x2 = 0.2369	717.86
342.87 K, 19018 kPa, x2 = 0.4536	728.54
342.87 K, 20000 kPa, x2 = 0.2369	718.83
342.87 K, 20000 kPa, x2 = 0.4536	729.75
342.87 K, 21007 kPa, x2 = 0.4536	731.02
342.87 K, 21023 kPa, x2 = 0.2369	719.83
342.87 K, 22008 kPa, x2 = 0.2369	720.78
342.87 K, 22021 kPa, x2 = 0.4536	732.28
342.87 K, 23029 kPa, x2 = 0.2369	721.76
342.87 K, 23032 kPa, x2 = 0.4536	733.5
342.87 K, 23992 kPa, x2 = 0.2369	722.74
342.87 K, 24017 kPa, x2 = 0.4536	734.7
342.87 K, 25008 kPa, x2 = 0.2369	723.65
342.87 K, 25029 kPa, x2 = 0.4536	735.91
352.75 K, 14010 kPa, x2 = 0.9663	449.95
352.75 K, 15010 kPa, x2 = 0.9663	494.4
352.75 K, 16020 kPa, x2 = 0.9663	532.74
352.75 K, 17024 kPa, x2 = 0.9663	566.61
352.75 K, 18026 kPa, x2 = 0.9663	594.54
352.75 K, 19015 kPa, x2 = 0.9663	618.22
352.75 K, 20016 kPa, x2 = 0.9663	638.64
352.75 K, 21018 kPa, x2 = 0.9663	656.61
352.75 K, 22006 kPa, x2 = 0.9663	672.26
352.75 K, 23021 kPa, x2 = 0.9663	686.58
352.75 K, 24018 kPa, x2 = 0.9663	699.34
352.75 K, 25017 kPa, x2 = 0.9663	710.94
352.76 K, 14034 kPa, x2 = 0.8114	701.72
352.76 K, 15050 kPa, x2 = 0.8114	707.51
352.76 K, 15994 kPa, x2 = 0.8114	712.45
352.76 K, 17009 kPa, x2 = 0.8114	717.35
352.76 K, 18024 kPa, x2 = 0.8114	722.02
352.76 K, 19033 kPa, x2 = 0.8114	726.33
352.76 K, 20039 kPa, x2 = 0.8114	730.42
352.76 K, 21009 kPa, x2 = 0.8114	734.16
352.76 K, 22013 kPa, x2 = 0.8114	737.84
352.76 K, 23004 kPa, x2 = 0.8114	741.32
352.76 K, 24035 kPa, x2 = 0.8114	744.84
352.76 K, 25042 kPa, x2 = 0.8114	748.08
352.78 K, 2008 kPa, x2 = 0.0551	686.89
352.78 K, 3010 kPa, x2 = 0.0551	688.04
352.78 K, 4018 kPa, x2 = 0.0551	689.18
352.78 K, 5014 kPa, x2 = 0.0551	690.28
352.78 K, 6015 kPa, x2 = 0.0551	691.42
352.78 K, 7011 kPa, x2 = 0.0551	692.46
352.78 K, 8024 kPa, x2 = 0.0551	693.62
352.78 K, 8988 kPa, x2 = 0.0551	694.56
352.78 K, 10035 kPa, x2 = 0.0551	695.65
352.78 K, 11021 kPa, x2 = 0.0551	696.68
